What is called logP is a log measure of how a compound divides between an organic and an aqueous phase. As a reminder, the IC50 is the concentration at which inhibition is half-maximal. As a reminder, the Solubility is the concentration that dissolves in the medium under given conditions.

In series [1] the test system is SB-CL2 melanoma cells. Put plainly: SB-CL2 melanoma tumor model in athymic nude mice. Format: in vivo. As to conditions: IP 50 & 75 mg/kg, qd × 5, TV-10. The protocol: (§1) MP470 and MP470 HCl were tested against different tumor types in athymic nude mice as summarized below (Table 8). Various formulations and routes were evaluated. HT-29 colorectal cancer cells and SB-CL2 melanoma cells were implanted subcutaneously, while A549 lung cancer cells, MiaPaCa-2 pancreatic cancer cells, TT medullary thyroid cancer cells, and OVCAR-3 ovarian cancer cells were implanted […] in the hind flank of mice. All animals were allowed to develop medium-sized (80-125 mg) tumors, before initiation of dosing. Tumor volume and mouse bodyweight were followed over the course of the study.

The test system of series [2] is HT-29 colorectal cancer cells. Format: in vivo. The protocol:
as §1
HT-29 Colorectal Model—Eighteen athymic nude mice were injected subcutaneously with HT-29 colorectal cancer cells. After tumor formation, animals received either 10 or 20 mg/kg MP470 by intraperitoneal (IP) injection using a qd5×2 wk schedule. On Day 5 of treatment, tumor growth rates in vehicle control animals were 19.5 mm3/d, while MP470-treated animals had tumor growth rates of 1.4 mm3/d (10 mg/kg) and −5.0 mm3/d (20 mg/kg). Tumor growth continued to decline throughout the 14 days of study. On Day 14, the tumor growth rates were 16.4 mm3/d (vehicle) compared to 4.3 mm3/d (10 mg/kg) and 5.5 mm3/d (20 mg/kg) in treated animals.

Series [3] is described as follows: log P by shake-flask octanol/water partitioning. Format: physicochemical. To be noted: aqueous phase citrate buffer pH 2. The protocol:
The log P value for MP470 was determined by the traditional shake-flask method with octanol/water partitioning. Citrate buffer at pH 2 was the aqueous phase. The concentration of the solute in the organic phase was analyzed by HPLC analysis of MP470 with respect to a calibration curve ranging from 0.2 to 200 μg/mL MP470. The majority of MP470 was found in the organic phase. The log P value of MP470 was determined to be 2.3.

The nature of series [4]: in vivo. As to conditions: both, beagle, dog, iv.
Experimental: The purpose of these studies was to determine the highest level of MP470 free base that can be administered intravenously to dogs without causing extreme illness, maximum tolerated dose (MTD). In both studies a single male and a single female beagle dog were injected intravenously with MP470.
In the second study we tested doses of 0.625, 1.25, 2.5, 5, 10, and 20 mg/kg MP470 in 1 male and 1 female beagle dog with 48-96 hrs between dose escalations, with the exception of 11 days between dose 5 and 6. Additionally, in this study approximately 5-10 second electrocardiograph (ECG) tracings in a lead II configuration were obtained from each dog prior to each dose, approximately 20 minutes after the start of dosing, and immediately after completion of dosing.
The conditions of series [5]: rat, in vivo. The protocol: Twenty-four rats were placed into four groups each consisting of three animals per sex. The animals were weighed the day before dosing, as well as just prior to dosing.
After intravenous infusion of MP470.HCl at 5 mg/kg, average MP470 peak plasma concentrations of 454.3 ng/mL for males and 370.7 ng/mL for females were attained at 0.083 hours (5 minutes), the first sampling point postdose. After oral administration of non-micronized MP470.HCl, peak plasma concentrations of MP470 were attained at 0.5-12 hours for Group 2 (25 mg/kg) and 4-12 hours for Group 3 (100 mg/kg, suspension). The extent of systemic exposure of rats to MP470, characterized by AUCO-∞, was approximately 3.8-fold and 2.9-fold higher in females than in males for Groups 2 and 3, respectively. Average AUCO-∞ values were higher at 100 mg/kg than at 25 mg/kg and the increases in AUCO-∞ were greater than dose-proportional.
After oral administration of micronized MP470.HCl (Group 4), peak plasma concentrations of MP470 were attained at 4-12 hours. The extent of systemic exposure of rats to MP470, characterized by AUCO-∞, was approximately 3.4-fold higher in females than in males for Group 4. The extent of exposure of rats to MP470, characterized by AUCO-∞, was 1.7-fold (males) and 1.4-fold (females) higher for non-micronized MP470 HCl (Group 3) than for micronized MP470 HCl (Group 4).

Series [6] can be described thus: in vivo. To be noted: dog. The protocol: Two groups of dogs, each consisting of one male and one female, received alternating escalating single doses of 30, 60, 240, 1000, and 2000 mg/kg of the test article. MP470.HCl was administered by capsule. […] No test article related mortalities or clinical signs of toxicity were observed. Test article related effects were limited to emesis following administration of 1000 and 2000 mg/kg doses. Single oral dose NOEL was determined to be 240 mg/kg and the acute oral MTD was 2000 mg/kg (highest dose tested).

Series [7] relates to DMS-153 SCLC cells. The series can be described thus: Sensitization of SCLC cells to etoposide. Format: cell-based. As to conditions: Homo sapiens; DMS-153, single agent. The protocol: (§2) Therefore, to determine if MP470 would increase sensitivity to etoposide treatment, SCLC cells were treated with the agents individually and in combination. […] Two sub-IC50 doses of MP470.HCl were tested in combination with etoposide to evaluate possible synergism and a resulting lower IC50 value for etoposide in each of the cell lines.

Series [8] relates to DMS-114 SCLC cells. The series can be described thus: Sensitization of SCLC cells to etoposide. Format: cell-based. To be noted: Homo sapiens; DMS-114, single agent. The protocol: as §2
Series [9] in a line: Solubility of MP470.HCl in common solvents at room temperature. Format: physicochemical.
Series [10] concerns Erk phosphorylation in Panc-1 Pancreas Cancer Cells. The series can be described thus: Erk phosphorylation after PMA stimulation. Format: cell-based. To be noted: PMA-stimulated cells; compared to PMA alone and PD98059; hydrochloride. An excerpt: FIG. 11 illustrates the Erk phosphorylation changes in Panc-1 Pancreas Cancer Cells after MP470 hydrochloride exposure
Regulation of Erk phosphorolation—MP470.HCl activity was screened against potential biomarkers, including proteins, such as Erk that are activated downstream of c-Kit. Erk was selected from potential candidate markers to evaluate changes in protein phosphorylation in treated cancer cell lines because MP470 appeared to regulate this event. […] Exposure to PMA is known to rapidly stimulate Erk phosphorylation and was used as a positive control.

The structures appear in SMILES notation. “Also recorded” adds a separate entry of the source. Read-outs that look alike come from different tables or passages of the source.

On to `S=C(NCc1ccc2c(c1)OCO2)N1CCN(c2ncnc3c2oc2ccccc23)CC1` [MP470, 4-[1]benzofuro[3,2-d]pyrimidin-4-yl-N-(1,3-benzodioxol-5-ylmethyl)piperazine-1-carbothioamide], for which the “Outcome: tumor growth” value in series [1] is listed as “Dose dependency”; in series [2] (HT-29 colon, IP 10, 20 mg/kg, (qd × 5) × 2 w, TV-13) it was “tumor growth was slowed but not reversed”. Moreover, the tumor growth rate in [2] (Day 5, 10 mg/kg IP qd5×2 wk (vehicle 19.5)) was 1.4 mm3/d; in [2] (Day 5, 20 mg/kg IP qd5×2 wk (vehicle 19.5)), −5.0 mm3/d; in [2] (Day 14, 10 mg/kg IP (vehicle 16.4)), 4.3 mm3/d; in series [2] (Day 14, 20 mg/kg IP (vehicle 16.4)) it was 5.5 mm3/d. Besides, the logP in series [3] is 2.3. In series [4], this compound showed an MTD at 0.5 h of 10 mg/kg.

For the compound `Cl.S=C(NCc1ccc2c(c1)OCO2)N1CCN(c2ncnc3c2oc2ccccc23)CC1` [MP470.HCl, 4-[1]benzofuro[3,2-d]pyrimidin-4-yl-N-(1,3-benzodioxol-5-ylmethyl)piperazine-1-carbothioamide hydrochloride], the “Bioavailability (%)” value is 100.21% in [5] (female) and 43.40% in [5] (male). Moreover, the “AUC INF” value came to 2530.9 ng·h/mL in series [5] (female, iv, 5 mg/kg); 12681.6 ng·h/mL in series [5] (female, po, 25 mg/kg); 1546.3 ng·h/mL in series [5] (male, iv, 5 mg/kg); 3355.1 ng·h/mL in series [5] (male, po, 25 mg/kg). Besides, the “t1/2” value in series [5] (female, iv, 5 mg/kg) fell in the range of 2.6 to 2.9 h; in series [5] (female, po, 25 mg/kg), 4.0 to 17.4 h; in series [5] (male, iv, 5 mg/kg) it was 3.1 to 4.4 h; in series [5] (male, po, 25 mg/kg), 2.8 to 4.2 h. Also, the MTD at 24 h in series [6] (both sexes, po) turned out to be 2000 mg/kg. Further, the “Single oral dose NOEL” value in series [6] (both, 24 h) is 240 mg/kg. For the same compound, the values for the IC50 in series [7] and in series [8] were 5.14 µM and 0.98 µM, respectively. Besides, the “Solubility” value in series [9] (Benzyl alcohol) stood at 48000 µg/mL; in series [9] (DMF) it was 9000 µg/mL; in series [9] (DMSO), 17000 µg/mL; in series [9] (Ethanol), 400 µg/mL; in [9] (Glycerol), 4000 µg/mL; in series [9] (Methanol), 3000 µg/mL. Further, the “Solubility” value in [9] (Propylene glycol) was determined as 4000 µg/mL. Further, in [9] (Water), the “Solubility (mg/mL)” value was “< detectable limit by HPLC”. The “level of Erk phosphorylation (P-Erk)” value in series [10] was “reduced the level of Erk phosphorylation; also recorded: reduced the level of P-Erk below that of PD98059”.

(Values after patent US8445502B2, “Pharmaceutical formulations comprising salts of a protein kinase inhibitor and methods of using same” (Astex Pharmaceuticals, Inc., priority 2007, dated 2013).)
